Source: US10640495B2, “Heterocycle derivatives having TrkA inhibitory activity” (Shionogi & Co., Ltd., priority 2015, dated 2020)

What follows are compounds tested against human TrkA (Homo sapiens (Human), UniProt P04629) (assay: Human TrkA inhibition assay (Test Example 2)). Conditions: Table 152, human TrkA inhibition; read-out: IC50_nM.
Type: biochemical
Procedure: Seven point five μL per well of human TrkA (PV3144, Lifetechnologies, final concentration: 1 nmol/L) suspended in the assay buffer (100 mmol/L 4-(2-hydroxyethyl)-1-piperazineethanesulfonic acid (HEPES), 10 mmol/L magnecium chloride, 0.003 vol % Brij-35, 0.004 vol % Tween20 and 1 mmol/L dithiothreitol (DTT)) was applied in a 384 well plate and the plate was pre-incubated for 15 min at room temperature with 0.4 μL of each compound (final concentration: 200 μmol/L-1 pmol/L) dissolved in DMSO. Then, fluorescent substrate (FL-peptide 27, 760424, PerkinElmer, final concentration: 1.5 μmol/L) and ATP (final concentration 500 μmol/L) dissolved in the assay buffer was added in each well. After the incubation of 120 min at 37° C., fifteen μL of termination buffer (100 mmol/L HEPES, 40 mmol/L ethylenediaminetetraacetic acid (EDTA), 10 mmol/L magnecium chloride, 0.003 vol % Brij-35, 0.004 vol % Tween20, 1 mmol/L DTT and 0.16 vol % Coating Reagent 3) was added in each well to stop the enzyme reaction. Fluorescent intensities (FI) of phosphorylated and non-phosphorylated fluorescent substrates were measured by LabChip EZReader II (Caliper LifeSciences, Inc.), and conversion ratio (CR) was calculated by the following formula-1. The CR in the well applied with DMSO alone was used as a negative control and the CR in the well without applying TrkA was used as a positive control. The inhibitory effect of each compound on TrkA phosphorylation was calculated by the following formula-2. CR (%)=(FI of phosphorylated substrate/(FI of phosphorylated substrate+FI of non-phosphorylated substrate))×100 (Formula-1) Phosphorylation inhibition (%)=(1−(CR with compound treatment−CR of positive control)/(CR of negative control−CR of positive control))×100 (Formula-2)
IC50 values (nmol/L) were determined by the logistic regression using the inhibition data in 10 points of 3-fold dilution series at a compound concentration range of 20 nmol/L to 1 pmol/L, or 10 points of 3-fold dilution series at the range of 2 μmol/L to 0.1 nmol/L, or 10 points of 3-fold dilution series at the range of 200 μmol/L to 10 nmol/L, or 15 points of 3-fold dilution series at the range of 200 μmol/L to 0.04 nmol/L.
The evaluation results of the compounds in the present invention are indicated as follows. IC50 values of 0 to 100 nM, 100 to 1000 nM and over 1000 nM were shown as “A”, “B” and “C”, respectively.

human TrkA, sequence (P04629 440-796): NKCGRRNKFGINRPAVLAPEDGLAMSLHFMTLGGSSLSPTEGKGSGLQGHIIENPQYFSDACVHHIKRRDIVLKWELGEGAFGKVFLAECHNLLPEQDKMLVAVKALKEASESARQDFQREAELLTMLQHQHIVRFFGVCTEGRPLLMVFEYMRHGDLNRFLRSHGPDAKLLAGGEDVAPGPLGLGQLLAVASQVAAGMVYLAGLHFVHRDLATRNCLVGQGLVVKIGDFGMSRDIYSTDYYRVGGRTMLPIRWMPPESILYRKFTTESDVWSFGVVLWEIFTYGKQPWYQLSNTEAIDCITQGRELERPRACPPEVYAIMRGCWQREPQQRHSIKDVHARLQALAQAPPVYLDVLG

With `COCCN1C[C@@H](NC(=O)Nc2c(C)c(C3=CCNCC3)nn2-c2ccccc2)[C@H](c2ccc(F)c(F)c2)O1` (racemic) [Compound I-30] as the compound, how does the IC50 read?
The IC50 was under 100 nM.

Same assay, conditions: Table 153, human TrkA inhibition; read-out: IC50

How did the IC50 turn out when `COCCN1C[C@@H](NC(=O)Nc2c(C)c(-c3cnc4c(c3)ncn4C)nn2-c2ccccc2)[C@H](c2cnc(F)c(F)c2)O1` (racemic) [Compound I-69] was run?
The IC50 was under 100 nM.

With `CCNC(=O)c1cc(-c2nn(-c3ccccc3)c(NC(=O)N[C@@H]3CN(CCOC)O[C@H]3c3ccnc(F)c3)c2C)cn(C)c1=O` (racemic) [Compound I-107] as the compound, how does the IC50 read?
The IC50 was under 100 nM.

`COCC[C@@H]1C[C@@H](NC(=O)Nc2c(C)c(-c3cnc4c(cnn4C)c3)nn2-c2ccccc2)[C@H](c2ccc(F)c(F)c2)O1` (racemic) [Compound I-99] was tested. Which IC50 did it give?
The IC50 was under 100 nM.

With `COCC[C@@H]1C[C@@H](NC(=O)Nc2c(C)c(-c3cnc4c(cnn4C)c3)nn2-c2ccccc2)[C@H](c2ccnc(F)c2)O1` (racemic) [Compound I-97] as the compound, how does the IC50 read?
The IC50 was under 100 nM.

How did the IC50 turn out when `COCCN1C[C@@H](NC(=O)Nc2c(C)c(-c3cnc(C)nc3)nn2-c2ccccc2)[C@H](c2ccccc2)O1` (racemic) [Compound I-160] was run?
Its IC50 is under 100 nM.

With `COCCN1C[C@@H](NC(=O)Nc2c(C)c(-c3cc(C(=O)NC4CCOCC4)c(=O)n(C)c3)nn2-c2ccccc2)[C@H](c2cnc(F)c(F)c2)O1` (racemic) [Compound I-74] as the compound, how does the IC50 read?
Its IC50 is under 100 nM.

Which IC50 does the source give for `COCCN1C[C@@H](NC(=O)Nc2c(C)c(-c3ccc4nnc(C)n4c3)nn2-c2ccccc2)[C@H](c2ccnc(F)c2)O1` (racemic) [Compound I-158] here?
Its IC50 is under 100 nM.

With `COCCN1C[C@@H](NC(=O)Nc2c(C)c(-c3cnc(C(=O)N[C@@H]4CCOC4)c(C)c3)nn2-c2ccccc2)[C@H](c2ccnc(F)c2)O1` [Compound I-172] as the compound, how does the IC50 read?
Its IC50 is under 100 nM.

How did the IC50 turn out when `COCCN1C[C@@H](NC(=O)Nc2c(C)c(-c3cnc4nccnc4c3)nn2-c2ccccc2)[C@H](c2ccc(F)c(F)c2)O1` (racemic) [Compound I-134] was run?
Its IC50 is under 100 nM.

`COCCN1C[C@@H](NC(=O)Nc2c(C)c(C3=CCN(C(C)=O)CC3)nn2-c2ccccc2)[C@H](c2cnc(F)c(F)c2)O1` (racemic) [Compound I-49] was tested. Which IC50 did it give?
Its IC50 is under 100 nM.

Same assay, conditions: Table 154, human TrkA inhibition; read-out: IC50

Which IC50 does the source give for `COCCC1C[C@@H](NC(=O)Nc2c(C)c(-c3cnc(CO)nc3)nn2-c2ccccc2)[C@H](c2ccccc2)O1` (stereo partly shown) [Compound I-296] here?
Its IC50 is under 100 nM.

How did the IC50 turn out when `COCCN1C[C@@H](NC(=O)Nc2c(C)c(-c3cnc(OC)c(C(N)=O)c3)nn2-c2ccccc2)[C@H](c2cnc(F)c(F)c2)O1` [Compound I-180] was run?
Its IC50 is under 100 nM.

How did the IC50 turn out when `COCC[C@@H]1C[C@@H](NC(=O)Nc2c(C)c(-c3cc(C(=O)NC4CCOCC4)c(=O)n(C)c3)nn2-c2ccccc2)[C@H](c2ccnc(F)c2)O1` [Compound I-272] was run?
The IC50 was under 100 nM.

`Cc1c(-c2cnn(C)c2)nn(-c2ccccc2)c1NC(=O)N[C@@H]1CN(CC(F)(F)F)O[C@H]1c1ccc(F)c(F)c1` (racemic) [Compound I-304] was tested. Which IC50 did it give?
Its IC50 is 100 to 1000 nM.

Which IC50 does the source give for `CNC(=O)c1nc2cc(-c3nn(-c4ccccc4)c(NC(=O)N[C@@H]4CN(CCOC)O[C@H]4c4ccnc(F)c4)c3C)cnc2n1C` (racemic) [Compound I-224] here?
The IC50 was under 100 nM.

Same assay, conditions: Table 155, human TrkA inhibition; read-out: IC50

How did the IC50 turn out when `COCCN1C[C@@H](NC(=O)Nc2c(C)c(-c3cnc4c(c3)nnn4C)nn2-c2ccccc2)[C@H](c2ccnc(F)c2)O1` [Compound I-342] was run?
Its IC50 is under 100 nM.

How did the IC50 turn out when `COCCN1C[C@@H](NC(=O)Nc2c(C)c(-c3cnc(OC)c(OC)c3)nn2-c2ccccc2)[C@H](c2cnc(F)c(F)c2)O1` (racemic) [Compound I-429] was run?
The IC50 was under 100 nM.

With `CCN1C[C@@H](NC(=O)Nc2c(C)c(-c3cnc(OC)nc3)nn2-c2ccccc2)[C@H](c2ccc(F)c(F)c2)O1` (racemic) [Compound I-405] as the compound, how does the IC50 read?
Its IC50 is under 100 nM.

How did the IC50 turn out when `COCCN1C[C@@H](NC(=O)Nc2c(C)c(-c3cnc(OC)nc3)nn2-c2ccccc2)[C@H](c2ccc(F)c(F)c2)O1` [Compound I-407] was run?
The IC50 was under 100 nM.

With `COCCN1C[C@@H](NC(=O)Nc2c(C)c(-c3ccc(N4CCNCC4)nc3)nn2-c2ccccc2)[C@H](c2ccnc(F)c2)O1` (racemic) [Compound I-374] as the compound, how does the IC50 read?
The IC50 was under 100 nM.

With `COCCN1C[C@@H](NC(=O)Nc2c(C)c(-c3cnc(N4CC5(CCOC5)C4)nc3)nn2-c2ccccc2)[C@H](c2ccnc(F)c2)O1` (racemic) [Compound I-483] as the compound, how does the IC50 read?
Its IC50 is under 100 nM.

For `COCCN1C[C@@H](NC(=O)Nc2c(C)c(OCC3CC3)nn2-c2ccccc2)[C@H](c2ccnc(F)c2)O1` (racemic) [Compound I-502], which IC50 is on record?
The IC50 was under 100 nM.

With `CCC(O)(CC)c1cc(-c2nn(-c3ccccc3)c(NC(=O)N[C@@H]3CN(CCOC)O[C@H]3c3ccnc(F)c3)c2C)cnc1OC` (racemic) [Compound I-354] as the compound, how does the IC50 read?
The IC50 was under 100 nM.

With `COCCN1C[C@@H](NC(=O)Nc2c(C)c(-c3cnc(-c4cnn(C)c4)nc3)nn2-c2ccccc2)[C@H](c2ccnc(F)c2)O1` (racemic) [Compound I-368] as the compound, how does the IC50 read?
Its IC50 is under 100 nM.

`COc1ncc(-c2nn(-c3ccccc3)c(NC(=O)N[C@@H]3CN(C)O[C@H]3c3ccc(F)c(F)c3)c2C)cn1` (racemic) [Compound I-468] was tested. Which IC50 did it give?
The IC50 was under 100 nM.

For `COCCN1C[C@@H](NC(=O)Nc2c(C)c(-c3cnc(OCCN(C)C)nc3)nn2-c2ccccc2)[C@H](c2ccnc(F)c2)O1` (racemic) [Compound I-409], which IC50 is on record?
Its IC50 is under 100 nM.

How did the IC50 turn out when `COCCN1C[C@@H](NC(=O)Nc2c(C)c(-c3ccc(N4CCN(C(=O)OC(C)(C)C)CC4)nc3)nn2-c2ccccc2)[C@H](c2ccnc(F)c2)O1` (racemic) [Compound I-372] was run?
The IC50 was under 100 nM.

`COCCN1C[C@@H](NC(=O)Nc2c(C)c(C3=CC(=O)N(C)C(C)(C)C3)nn2-c2ccccc2)[C@H](c2ccnc(F)c2)O1` (racemic) [Compound I-397] was tested. Which IC50 did it give?
The IC50 was under 100 nM.

Same assay, conditions: Table 156, human TrkA inhibition; read-out: IC50

Which IC50 does the source give for `COCCN1C[C@@H](NC(=O)Nc2c(C)c(OCC3CN(C(C)=O)CCO3)nn2-c2ccccc2)[C@H](c2ccc(F)c(F)c2)O1` (single isomer, unassigned) [Compound I-578] here?
Its IC50 is under 100 nM.

With `CCOc1nn(-c2ccccc2)c(NC(=O)N[C@@H]2CN(CCOC)O[C@H]2c2ccnc(F)c2)c1C` (racemic) [Compound I-523] as the compound, how does the IC50 read?
The IC50 was under 100 nM.

For `COCCN1C[C@@H](NC(=O)Nc2c(C)c(-c3cnc(N4CCC(N(C)C)CC4)nc3)nn2-c2ccccc2)[C@H](c2ccnc(F)c2)O1` (racemic) [Compound I-532], which IC50 is on record?
The IC50 was under 100 nM.

Same assay, conditions: Table 157, human TrkA inhibition; read-out: IC50

Which IC50 does the source give for `CCN1C[C@@H](NC(=O)Nc2c(C)c(OCCC3CCN(C(=O)OC(C)(C)C)C3)nn2-c2ccccc2)[C@H](c2ccc(F)c(F)c2)O1` (stereo partly shown) [Compound I-597] here?
Its IC50 is under 100 nM.

How did the IC50 turn out when `COCCN1C[C@@H](NC(=O)Nc2c(C)c(-c3cnc(OC)c(CO)c3)nn2-c2ccccc2)[C@H](c2ccc(F)c(F)c2)O1` [Compound I-637] was run?
The IC50 was under 100 nM.

With `CCN1C[C@@H](NC(=O)Nc2c(C)c(OCCCC(=O)N3CCN(C)CC3)nn2-c2ccccc2)[C@H](c2ccc(F)c(F)c2)O1` (racemic) [Compound I-666] as the compound, how does the IC50 read?
The IC50 was under 100 nM.

How did the IC50 turn out when `CCN1C[C@@H](NC(=O)Nc2c(C)c(OCC3CCN(C(=O)CO)CC3)nn2-c2ccccc2)[C@H](c2ccc(F)c(F)c2)O1` (racemic) [Compound I-607] was run?
Its IC50 is under 100 nM.

For `COCCN1C[C@@H](NC(=O)Nc2c(C)c(-c3cnc(N4CC[C@H](N(C)C)C4)nc3)nn2-c2ccccc2)[C@H](c2ccnc(F)c2)O1` [Compound I-586], which IC50 is on record?
The IC50 was under 100 nM.

`CCN1C[C@@H](NC(=O)Nc2c(C)c(OCC(=O)NCC(C)(C)O)nn2-c2ccccc2)[C@H](c2ccc(F)c(F)c2)O1` (racemic) [Compound I-652] was tested. Which IC50 did it give?
Its IC50 is under 100 nM.

Same assay, conditions: human TrkA 1 nmol/L, ATP 500 μmol/L, 120 min at 37° C.; read-out: IC50 values (TrkA phosphorylation inhibition)

Which IC50 does the source give for `CCN1C[C@@H](NC(=O)Nc2c(C)c(-c3cnc(OC)c(C(=O)NC)c3)nn2-c2ccccc2)[C@H](c2ccc(F)c(F)c2)O1` (racemic) [Compound I-406] here?
The IC50 was 2.2 nM.

`COCCN1C[C@@H](NC(=O)Nc2c(C)c(-c3ccc(CN=S(C)(C)=O)cc3)nn2-c2ccccc2)[C@H](c2ccc(F)c(F)c2)O1` [Compound I-332] was tested. Which IC50 did it give?
Its IC50 is 1.2 nM.

For `COCCN1C[C@@H](NC(=O)Nc2c(C)c(-c3ccc(N4CCC(O)CC4)nc3)nn2-c2ccccc2)[C@H](c2ccnc(F)c2)O1` (racemic) [Compound I-278], which IC50 is on record?
The IC50 was 3.7 nM.

`COCCN1C[C@@H](NC(=O)Nc2c(C)c(-c3cnc(OC)c(CN(C)C)c3)nn2-c2ccccc2)[C@H](c2ccc(F)c(F)c2)O1` [Compound I-639] was tested. Which IC50 did it give?
The IC50 was 0.52 nM.

Which IC50 does the source give for `COCCN1C[C@@H](NC(=O)Nc2c(C)c(-c3cnc4[nH]ncc4c3)nn2-c2ccccc2)[C@H](c2ccnc(F)c2)O1` (racemic) [Compound I-299] here?
Its IC50 is 2.1 nM.
